Assay results published in patent publication US5444056A, “Aminoalkoxyphenyl derivatives, process for their preparation and compositions containing them” (Sanofi, priority 1989, dated 1995).
Where a name gives a salt, the structure may show the parent alone.

How the values were obtained:
[1] = system: increase in blood pressure induced by epinephrine (anti-α effect); test: Anti-α effect: reduction of epinephrine-induced increase in blood pressure in anesthetized atropinized dog; type: in vivo; design: key: +: for a reduction <50%; ++: for a reduction ≥50%; +++: for an almost complete reduction
Method: The aim of this test is to determine the capacity of the compounds of the invention to reduce the increase in blood pressure induced by epinephrine (anti-αeffect) and the acceleration of the heart rate induced by isoprenaline (anti-βeffect) in the dog previously anesthetized with pentobarbital and atropinized. First, are determined for each dog the dose of epinephrine (between 3 and 10 μg/kg) which causes a reproducible increase in arterial blood pressure of about 133.10^2 Pa and the dose of isoprenaline (1 to 2 μg/kg) which causes a reproducible increase in the heart rate of about 70 beats/minute. The doses of epinephrine and isoprenaline thus determined are injected alternatively every ten minutes and after the two consecutive reference responses have been obtained, a quantity of the test compound is administered by the intravenous route. The percentage reduction of the hypertension caused by the test compound in comparison with the reference hypertension previously obtained (about 100 mm Hg) is recorded. In both cases, the results of the reduction in arterial pressure and heart rate are expressed as follows: […]

[2] = system: contractile response to potassium-induced depolarization on isolated rat aorta; test: Calcium inhibitory properties: antagonism of contractile response to potassium-induced depolarization on isolated rat aorta; design: species or system rat (male Wistar); conditions: percent of maximal contraction before incubation, 60 min
Source text: It is well established that the depolarization of a smooth muscle membrane by potassium makes the latter permeable to extracellular calcium and induces muscle contraction. Consequently, the measurement of inhibition of the contractile response to depolarization by potassium or the measurement of relaxation of the tonic contraction on potassium depolarization can provide an evaluation of the potency of a compound as an inhibitor of the membrane permeability to Ca^++ ions. The technique used is the following: The aorta is removed from male Wistar rats weighing about 300 g and cut into strips approximately 40 mm long and 3 mm wide. These fragments are placed in a 25 ml isolated organ bath containing modified Krebs-bicarbonate solution (112 mM NaCL; 5 mM KCl; 25 mM NaHCO3; 1 mM KH2 PO4; 1.2 mM MgSO4; 2.5 mM CaCl2; 11.5 mM glucose, made up to 1000 ml with distilled water) maintained at 37° C. and through which a stream of carbon dioxide is passed. The preparation is connected to a force microsensor and the contractile response is recorded after amplification on a recorder. A tension of 2g is applied to the preparation. This latter is maintained in the modified Krebs-bicarbonate solution for 60 minutes, and then contractions are induced by replacing the Krebsbi-carbonate solution by a Krebs-potassium solution (17 mM NaCl; 100 mM KCl; 25 mM NaHCO3; 1 mM KH2 PO4; 1.2 mM MgSO4; 2.5 mM CaCl2; 11.5 mM glucose; made up to 1000 ml with distilled water). When the contractile response of the preparation has become reproducible, a given amount of the compound of the invention is introduced into the bath. Sixty minutes later a new spasm is induced by potassium depolarization. The results obtained on the aorta under investigation are then expressed in percent of the maximal contractional effect before incubation with the test substance. As examples, the following results were obtained, the compounds of formula (1) being in the form of the free base, the hydrochloride, oxalate or fumarate.

[3] = system: acceleration of the heart rate induced by isoprenaline (anti-β effect); test: Anti-β effect: reduction of isoprenaline-induced acceleration of the heart rate in anesthetized atropinized dog; type: in vivo; design: key to Anti-β effect: +: for a reduction <50%; ++: for a reduction ≥50%; +++: for an almost complete reduction
Method: The aim of this test is to determine the capacity of the compounds of the invention to reduce the increase in blood pressure induced by epinephrine (anti-αeffect) and the acceleration of the heart rate induced by isoprenaline (anti-βeffect) in the dog previously anesthetized with pentobarbital and atropinized.
First, are determined for each dog the dose of epinephrine (between 3 and 10 μg/kg) which causes a reproducible increase in arterial blood pressure of about 133.10^2 Pa and the dose of isoprenaline (1 to 2 μg/kg) which causes a reproducible increase in the heart rate of about 70 beats/minute. The doses of epinephrine and isoprenaline thus determined are injected alternatively every ten minutes and after the two consecutive reference responses have been obtained, a quantity of the test compound is administered by the intravenous route.
The percentage reduction of the acceleration of the heart rate caused by the test compound compared with the reference tachycardia previously measured (about 70 beats) is recorded.
In both cases, the results of the reduction in arterial pressure and heart rate are expressed as follows: […]

Compound | % maximal contractional effect ([2]; 10^-8 M, 0.01 µM) | % maximal contractional effect ([2]; 10^-9 M, 0.001 µM) | % maximal contractional effect ([2]; 10^-10 M, 0.0001 µM) | % maximal contractional effect ([2]; 10^-7 M, 0.1 µM) | also measured
COc1ccc(CCN(C)CCCOc2ccc(S(=O)(=O)c3c(C(C)C)nn4c(C)cccc34)cc2)cc1OC [Ex. 50, 3-{4-[3-(N-methyl N-3,4-dimethoxy-β-phenethylamino)propoxy]benzenesulfonyl} 2-isopropyl 7-methyl pyrazolo[1,5-a]pyridine hydrogen oxalate] | 29,1% | 65,6% | 86,3% | – | Anti-α effect ([1]; intravenous, 0,13 mg/kg): +++; Anti-β effect ([3]; intravenous, 0,13 mg/kg): +++
COc1ccc(CCN(C)CCCOc2ccc(S(=O)(=O)c3c(C(C)C)c4cccc(C)c4n3C)cc2)cc1OC [Ex. 55, 2-{4-[3-(N-methyl N-3,4-dimethoxy-β-phenethylamino)propoxy]benzenesulfonyl} 3-isopropyl 1,7-dimethyl indole hydrogen oxalate] | 56,4% | 79% | 85,7% | 45,8% | Anti-α effect ([1]; intravenous, 0,07 mg/kg): +++; Anti-β effect ([3]; intravenous, 0,07 mg/kg): +++
COc1ccc(CCN(C)CCCOc2ccc(S(=O)(=O)c3c(C(C)C)cn4cccc(C)c34)cc2)cc1OC [Ex. 15, 2-isopropyl 8-methyl 1-{4-[3-(N-methyl N-3,4-dimethoxy-β-phenethylamino)propoxy]benzenesulfonyl}indolizine hydrogen oxalate] | 11,1% | 41,0% | 85,2% | – | Anti-α effect ([1]; intravenous, 0,013 mg/kg): ++ (for a reduction ≥50%); inhibition in vivo at 0.013 mg/kg ([3]; Canis lupus familiaris, intravenous, 0,013 mg/kg): < 50%
CCCCc1oc2ccc([N+](=O)[O-])cc2c1S(=O)(=O)c1ccc(OCCCN(C)CCc2ccc(OC)c(OC)c2)cc1 [Ex. 1, 2-n-butyl 3-{4-[3-(N-methyl N-3,4-dimethoxy-β-phenethylamino)propoxy]benzenesulfonyl} 5-nitro benzofuran hydrochloride] | – | – | – | 70,1% | Anti-α effect ([1]; intravenous, 3,23 mg/kg): +++; % maximal contractional effect ([2]; 10^-6 M, 1 µM): 45,4%
CCCCN(CCCC)CCCOc1ccc(S(=O)(=O)c2c(C(C)C)n(C)c3ccc(Cl)cc23)cc1.O=C(O)C(=O)O [Ex. 44, 1-methyl 2-isopropyl 3-{4-[3-(di-n-butylamino)propoxy]benzenesulfonyl} 5-chloro indole hydrogen oxalate] | 85,7% | – | – | 69,6% | Anti-α effect ([1]; intravenous, 1,2 mg/kg): ++ (for a reduction ≥50%)
CC(C)c1c(S(=O)(=O)c2ccc(OCCCN(C)C3CCCc4ccccc43)cc2)c2cc(Cl)ccc2n1C.O=C(O)C(=O)O (stereo not shown) [Ex. 47, 1-methyl 2-isopropyl 3-{4-[3-(N-methyl N-1,2,3,4-tetrahydronaphth-1-ylamino)propoxy]benzenesulfonyl} 5-chloro indole hydrogen oxalate] | 88,3% | 91,4% | – | 75,3% | Anti-α effect ([1]; intravenous, 6,6 mg/kg): ++ (for a reduction ≥50%)
COc1ccc(CCN(C)CCCOc2ccc(S(=O)(=O)c3c(C(C)C)c4ccccc4n3CCCN(C)CCc3ccc(OC)c(OC)c3)cc2)cc1OC [Ex. 10, 2-{4-[3-(N-methyl N-3,4-dimethoxy-β-phenethylamino)propoxy]benzenesulfonyl} 1-[3-(N-methyl N-3,4-dimethoxy-β-phenethylamino)propyl] 3-isopropyl indole dioxalate] | 90,2% | – | – | 78,9% | Anti-α effect ([1]; intravenous, 4,9 mg/kg): +++; Anti-β effect ([3]; intravenous, 4,9 mg/kg): +++
COc1ccc2c(c1)c(C(C)C)c(S(=O)(=O)c1ccc(OCCCN(C)CCc3ccc(OC)c(OC)c3)cc1)n2C [Ex. 61, 2-{4-[3-(N-methyl N-3,4-dimethoxy-β-phenethylamino)propoxy]benzenesulfonyl} 3-isopropyl 5-methoxy 1-methyl indole hydrogen fumarate] | 31,2% | 71,4% | 89,5% | 15,7% | Anti-α effect ([1]; intravenous, 0,035 mg/kg): +++; inhibition in vivo at 0.035 mg/kg ([3]; Canis lupus familiaris, intravenous, 0,035 mg/kg): ≥ 50%
CCCCN(CCCC)CCCOc1ccc(S(=O)(=O)c2c(C)nn3cccc(C)c23)cc1.O=C(O)C(=O)O [Ex. 49, 3-{4-[3-(di-n-butylamino)propoxy]benzenesulfonyl} 2,4-dimethyl pyrazolo[1,5-a]pyridine hydrogen oxalate] | 62,9% | 75,7% | – | – | Anti-α effect ([1]; intravenous, 0,28 mg/kg): + (for a reduction <50%)
CCCCN(CCCC)CCCOc1ccc(S(=O)(=O)c2c(C(C)C)cn3ccccc23)cc1 [B, reference compound] | 61% | – | – | – | Anti-α effect ([1]; intravenous, 0,5 mg/kg): ++ (for a reduction ≥50%)
COc1ccc(CCN(C)CCCOc2ccc(S(=O)(=O)c3c(C(C)C)cn4c(C)cccc34)cc2)cc1OC [Ex. 79, 2-Isopropyl 5-methyl 1-{4-[3-(N-methyl N-3,4-dimethoxy-β-phenethylamino)propoxy]benzenesulfonyl}indolizine] | 29,8% | 77,9% | 87,3% | – | Anti-α effect ([1]; intravenous, 0,07 mg/kg): +++
COc1ccc(CCN(C)CCCOc2ccc(S(=O)(=O)c3c(C(C)C)cn4ccccc34)cc2)cc1OC [C, reference compound] | 40,1% | 81,7% | – | – | Anti-α effect ([1]; intravenous, 0,1 mg/kg): +++; Anti-β effect ([3]; intravenous, 0,1 mg/kg): +++
CCCCN(CCCC)CCCOc1ccc(S(=O)(=O)c2c(C(C)C)cn3cccc(C)c23)cc1 [Ex. 75, 1-{4-[3-(di-n-butylamino)propoxy]benzenesulfonyl} 2-isopropyl 8-methyl indolizine] | 9,7% | 51,4% | 83,8% | – | Anti-α effect ([1]; intravenous, 0,02 mg/kg): ++ (for a reduction ≥50%)
2-isopropyl 8-methyl 1-{4-[3-(6,7-dimethoxy 1,2,3,4-tetrahydro N-isoquinolin-2-yl)propoxy]benzenesulfonyl}indolizine hydrogen oxalate [Ex. 2] | – | – | – | – | Anti-α effect ([1]; intravenous, 0,065 mg/kg): +++; Anti-β effect ([3]; intravenous, 0,065 mg/kg): +++
COc1ccc(CCN(C)CCCOc2ccc(S(=O)(=O)c3c(C(C)C)n(CCN(C)C)c4ccccc34)cc2)cc1OC [Ex. 11, 3-{4-[3-(N-methyl N-3,4-dimethoxy-β-phenethylamino)propoxy]benzenesulfonyl} 1-dimethylaminoethyl 2-isopropyl indole dioxalate] | 85,9% | – | – | 66,7% | Anti-α effect ([1]; intravenous, 1,6 mg/kg): ++ (for a reduction ≥50%)
